Source: ChEMBL document CHEMBL2074360, “Sequence analysis and functional characterization of the 5'-flanking region of the rat multidrug resistance protein 2 (mrp2) gene” (Biochem Biophys Res Commun, 1998)

How the values were obtained:
[1] = molecular target: T1, ATP-binding cassette sub-family C member 2 (Rattus norvegicus, UniProt Q63120); assay: TP_TRANSPORTER: Western blot, H4IIE rat hepatoma cells; type: functional, cell-based
[2] = molecular target: T1, ATP-binding cassette sub-family C member 2; assay: TP_TRANSPORTER: Northern blot from H4IIE rat hepatoma cells; type: functional, cell-based

T1 sequence (Q63120 whole entry): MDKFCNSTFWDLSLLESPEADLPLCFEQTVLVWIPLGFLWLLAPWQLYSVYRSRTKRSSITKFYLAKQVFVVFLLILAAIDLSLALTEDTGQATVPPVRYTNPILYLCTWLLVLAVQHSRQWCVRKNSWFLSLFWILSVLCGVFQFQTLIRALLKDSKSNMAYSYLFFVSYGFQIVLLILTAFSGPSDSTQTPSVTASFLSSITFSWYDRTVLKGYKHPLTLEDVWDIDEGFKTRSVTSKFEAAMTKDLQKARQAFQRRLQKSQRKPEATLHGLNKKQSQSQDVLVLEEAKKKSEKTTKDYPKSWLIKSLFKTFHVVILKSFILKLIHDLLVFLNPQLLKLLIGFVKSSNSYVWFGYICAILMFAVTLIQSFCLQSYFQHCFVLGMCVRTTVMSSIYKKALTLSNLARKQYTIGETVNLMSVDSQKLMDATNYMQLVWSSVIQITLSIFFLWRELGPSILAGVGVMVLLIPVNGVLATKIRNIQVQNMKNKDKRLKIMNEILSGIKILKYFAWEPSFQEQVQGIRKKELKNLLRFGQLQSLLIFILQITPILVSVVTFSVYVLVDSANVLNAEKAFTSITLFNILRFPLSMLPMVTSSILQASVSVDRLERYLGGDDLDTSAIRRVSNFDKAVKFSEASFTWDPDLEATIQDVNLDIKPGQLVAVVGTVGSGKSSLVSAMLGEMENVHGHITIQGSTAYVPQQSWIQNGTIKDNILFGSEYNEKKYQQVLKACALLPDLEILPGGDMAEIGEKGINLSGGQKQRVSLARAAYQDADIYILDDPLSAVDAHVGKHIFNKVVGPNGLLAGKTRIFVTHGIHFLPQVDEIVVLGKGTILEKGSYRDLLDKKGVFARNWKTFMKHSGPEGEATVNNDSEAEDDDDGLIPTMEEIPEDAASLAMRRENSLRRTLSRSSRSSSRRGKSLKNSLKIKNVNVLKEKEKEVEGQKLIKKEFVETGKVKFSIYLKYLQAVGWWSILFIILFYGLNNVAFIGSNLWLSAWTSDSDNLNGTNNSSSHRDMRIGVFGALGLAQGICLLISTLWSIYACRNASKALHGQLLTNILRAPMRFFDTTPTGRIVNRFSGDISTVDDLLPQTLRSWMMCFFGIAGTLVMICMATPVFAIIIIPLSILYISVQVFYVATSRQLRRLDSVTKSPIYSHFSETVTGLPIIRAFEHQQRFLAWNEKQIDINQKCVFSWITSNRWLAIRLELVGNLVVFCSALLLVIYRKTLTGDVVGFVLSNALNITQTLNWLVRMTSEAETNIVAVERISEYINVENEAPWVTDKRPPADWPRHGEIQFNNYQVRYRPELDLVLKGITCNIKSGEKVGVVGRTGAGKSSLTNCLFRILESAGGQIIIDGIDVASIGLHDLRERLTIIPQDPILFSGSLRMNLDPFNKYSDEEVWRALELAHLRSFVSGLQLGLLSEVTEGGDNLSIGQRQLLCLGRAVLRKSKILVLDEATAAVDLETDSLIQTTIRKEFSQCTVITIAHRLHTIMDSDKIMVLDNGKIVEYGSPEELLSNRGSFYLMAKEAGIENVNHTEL

Compound: CCC1(c2ccccc2)C(=O)NC(=O)NC1=O [PHENOBARBITAL]
- Activity [1]: inducer [+]
- Activity [2]: inducer [+]

Compound: C#C[C@]1(O)CC[C@H]2[C@@H]3CCc4cc(O)ccc4[C@H]3CC[C@@]21C [ETHINYL ESTRADIOL]
- Activity [1]: inducer [+]
- Activity [2]: inducer [+]
